These results are taken from article PMC6278537, “Simultaneous Determination and Pharmacokinetics Study of Six Triterpenes in Rat Plasma by UHPLC-MS/MS after Oral Administration of Sanguisorba officinalis L. Extract” (Molecules, 2018).

Each structure is given as a SMILES string. Read-outs that look alike come from different tables or passages of the source.

Data set [1] is described as follows: Pharmacokinetic study in rats after single oral administration of S. officinalis extract (UHPLC-MS/MS of plasma). It is filed as in vivo, Sprague-Dawley rats. As to the method:
The UHPLC-MS/MS method was successfully used in the pharmacokinetic studies of six analytes after single dose administration of S. officinalis extract in rats. Based on the body surface area calculations of people and the animals and equivalent dose conversion calculations, the dosage of the rats was 0.015 g/kg. The half-time (t1/2), maximum plasma concentration (Cmax), time to reach Cmax (Tmax), and area under concentration–time curve (AUC0→t and AUC0→∞) were calculated via non-compartmental analysis (Table 6). The pharmacokinetic parameters of six components were reckoned by means of non-compartmental analysis using DAS 2.0 (Shanghai, China).
The experimental protocol was permitted by the Animal Ethics Committee of Harbin Medical University and conformed to the principles for the Care and Use of Laboratory Animals. Twelve male Sprague-Dawley rats (Weight 200 ± 20 g) were provided by the Laboratory Animal Centre of Harbin Medical University (Harbin, China). Each rat was fasted for 12 h before giving the drug and had free water supply even during the experiment. The S. officinalis extract was dissolved in water. A single dose of the S. officinalis extract (0.015 g/kg) was administrated to the rats. Blood (0.3 mL) was gained from the retinal venous plexus at 0, 0.083, 0.25, 0.5 1.0, 1.5, 2.0, 3.0, 4.0, 6.0, 8.0, 12.0 and 24.0 h after dosing. The plasma was immediately separated by centrifugation at 12000 rpm for 5 min at […].
Ten microliters of IS (1040.0 ng/mL) solution and 100 μL of methanol were added to 100 μL aliquot of plasma sample and vortexed for 30 s. The mixture was extracted with 3 mL ethyl acetate by being vortex-mixed for 1 min. The supernatant was separated and evaporated to dryness by N2 blowing at 40 °C after centrifuging at 3800 rpm for 5 min. The residue was reconstituted with 100 μL of methanol, and then vortex-mixed for 2 min and filtered by a 0.22 μm nylon 66 organic membrane. This was followed by injection of 5 μL aliquot of the solution into the UHPLC-MS/MS system (Agilent Technologies, Santa Clara, CA, USA).
The maximum concentration (Cmax) and the time to attain it (Tmax) were observed directly from the measured data. The elimination rate constant (Ke) was calculated by linear regression of the terminal points in a semi-log plot of the plasma concentration against time. The elimination half-life (t1/2) was calculated using the formula t1/2 = 0.693/Ke. The area under plasma concentration–time curve (AUC0→t) to the last measurable plasma concentration (Ct) was estimated by using the linear trapezoidal rule. The area under the plasma concentration–time curve to time infinity (AUC0→∞) was calculated as: AUC0→∞ = AUC0→t + Ct/Ke. The pharmacokinetic parameters of six analytes were reckoned by non-compartmental analysis using DAS 2.0 (Mathematical Pharmacology Professional Committee of China, Shanghai, China).

Data set [2] can be described thus: Stability of analytes in rat plasma under various storage conditions. It is filed as in vitro ADME. As to conditions: for Stability Post-Preparation: 12 h after sample preparation at 4 °C; for Stability Short-Term / Stability Long-Term / Stability Three Freeze-Thaw: rat plasma; for Stability Short-Term: room temperature 4 h; for Stability Long-Term: storage for 2 weeks; for Stability Three Freeze-Thaw: three freeze–thaw cycles at −20 °C. Here is the method:
The stability of six analytes in rat plasma was estimated under different storage conditions. […] Post-preparative stability of analytes also implied that there was no obvious degradation when samples were kept at 4 °C for 12 h. In addition, all compounds remained stable for two weeks at […].
The stability of six compounds in rat plasma including freeze and thaw stability (three freeze–thaw cycles at −20 °C), long-term stability (storage for 2 weeks at −80 °C), room temperature stability (storage for 4 h at ambient temperature), and post-preparation stability […] All stability testing QC samples were determined by using the calibration curve of freshly prepared standard samples.

Where [3] appears, read: male, Sprague-Dawley, rat plasma, single oral dose of S. officinalis extract 0.015 g/kg, n = 12, mean ± SD.
Setting [4] is: rats, after oral administration of S. officinalis extract, Figure 4.

Regarding `C=C1[C@H]2C3=CC[C@@H]4[C@@]5(C)C[C@@H](O)[C@@H](O)C(C)(C)[C@@H]5CC[C@@]4(C)[C@]3(C)CC[C@@]2(C(=O)O[C@@H]2O[C@H](CO)[C@@H](O)[C@H](O)[C@H]2O)CC[C@H]1C` [VI, alpinoside], in data set [1] (male, Sprague-Dawley, rat, plasma, po, 0.015 g/kg, rat plasma, single oral dose of S. officinalis extract 0.015 g/kg, n = 12, mean ± SD, read-out: Cmax), the Cmax (in general, the peak of the concentration-time curve) came out at 243 ± 19.9 ng/mL. Also, in data set [1] (setting [3]), the AUC(0-inf) (as a rule, total exposure, with the tail of the curve extrapolated) came out at 1110 ± 98.1 ng·h/mL; the AUC(0-t) (commonly exposure summed from dosing to a finite time, without extrapolation to infinity) came out at 1030 ± 73.4 ng·h/mL; the Tmax (commonly the time from dosing to the highest level) was 1.17 ± 0.26 h; the half-life (as a rule, the time needed for the level to fall by half in the phase considered) was 7.72 ± 1.22 h. The molecule further gave a Cmax in data set [1] (rat plasma, single oral dose of S. officinalis extract 0.015 g/kg, n = 12, mean ± SD) of 243.2 ± 19.9 ng/mL. Also, in data set [1] (setting [4]), the “time of first peak of mean plasma concentration-time curve (double-peak phenomenon)” value was 0.5 to 1.5 h and the “time of second peak of mean plasma concentration-time curve (double-peak phenomenon)” value was in the range of 4 to 8 h. Also, in data set [2] (high QC spiked concentration), the “Stability Post-Preparation” value stood at 4.85 % RE, the “Stability Short-Term” value was found to be 3.26 % RE, the “Stability Long-Term” value turned out to be 5.28 % RE and the “Stability Three Freeze-Thaw” value is −1.64 % RE. In data set [2] (low QC spiked concentration), the “Stability Post-Preparation” value was determined as 3.18 % RE, the “Stability Short-Term” value is reported as −10.78 % RE, the “Stability Long-Term” value was −2.07 % RE and the “Stability Three Freeze-Thaw” value is 2.74 % RE. For the same molecule, in data set [2] (medium QC spiked concentration), the “Stability Post-Preparation” value amounted to 9.78 % RE, the “Stability Short-Term” value is recorded as 2.34 % RE, the “Stability Long-Term” value is reported as 2.79 % RE and the “Stability Three Freeze-Thaw” value stood at 6.61 % RE.
